Like-named read-outs stand apart in the source and are kept apart here. Where a SMILES comes first, the peptide text is derived from it. Bridges are numbered along the chain shown (N, C = ends).
How the values were obtained:
E. tarda genomic DNA [1] = test: Gel migration (DNA binding) assay; set-up: species or system Edwardsiella tarda; conditions: 0.25 μg DNA, 10 min at room temperature, 0.7% agarose gel; mass ratios 0–10 tested
Protocol: The genomic DNA of E. tarda or O. niloticus was incubated for 10 min at room temperature with different concentrations of N6 and N6NH2 in binding buffer (5% glycerol, 10 mM Tris-HCl, pH 8.0, 20 mM KCl, 1 mM EDTA, 1 mM dithiothreitol and […] BSA). The mass ratios of peptides and DNA were 0, 0.5, 1, 2, 4, 6, 8, and 10, respectively. The migration of DNA was evaluated by electrophoresis on a 0.7% agarose gel.

E. tarda genomic DNA [2] = test: Competitive binding of genomic DNA with ethidium bromide; set-up: species or system Edwardsiella tarda; conditions: peptide 160 μg/mL added to DNA (10 μg)-EB; 30 min at 37 °C
Protocol: E. tarda genomic DNA was dissolved in TE buffer to a concentration of 100 μg/mL; 1.5 μL of EB (100 μg/mL) solution was mixed with 100 μL of DNA solution and then added into 96-well plates. The DNA-EB mixture was incubated in the dark at 37 °C for 10 min. Varying concentrations of peptides (0, 40, 80, and 160 μg/mL, 100 μL) were then added to the DNA-EB solution (100 μL), and the fluorescence spectra were measured for each test solution after 30 min of incubation at 37 °C in the dark. Infinite M200 PRO was used for sample determination at 535 nm, and the spectra were recorded from 550 to 750 nm.
To determine the competitive binding of EB against peptides with bacterial DNA, 100 μL of DNA (50 μg/mL) solution was mixed with 100 μL of peptide solution (80 μg/mL) and incubated at 37 °C for 10 min. Then aliquots of stock solution of EB (0, 25, 50, and 100 μg/mL, 1.5 μL) were added to the fixed DNA-peptide solution and incubated for 30 min at 37 °C in the dark. The fluorescence spectra were measured as described above.

[3] = LPS binding, BODIPY-TR-cadaverine displacement; set-up: species or system E. coli; conditions: 0.5 µM LPS, 5 μM BC, Tris buffer pH 7.4; 0.049 μM to 50 μM; excitation/emission 580/620 nm
[4] = system: Staphylococcus aureus ATCC43300
[5] = broth microdilution, MHB, 1 × 10^5 CFU/mL, 37 °C 18–24 h, n = 3, some N6 data from ref 19

For `CC(C)[C@@H]1NC(=O)CNC(=O)[C@H](CC(N)=O)NC(=O)[C@H](CCCNC(=N)N)NC(=O)[C@H](Cc2ccc(O)cc2)NC(=O)[C@H](C(C)C)NC(=O)[C@@H](NC(=O)[C@@H](NC(=O)[C@H](CC(N)=O)NC(=O)[C@H](Cc2c[nH]c3ccccc23)NC(=O)[C@H](C)NC(=O)[C@H](Cc2ccccc2)NC(=O)CN)C(C)C)CSSC[C@@H](C(=O)N[C@@H](Cc2c[nH]cn2)C(=O)N[C@@H](CCCNC(=N)N)C(=O)N[C@@H](CCCNC(=N)N)C(=O)N[C@@H](C)C(=O)N[C@@H](CC(N)=O)C(=O)O)NC(=O)[C@H](C(C)C)NC(=O)[C@H](CCCNC(=N)N)NC1=O` [Peptide N6] (H-GFAWNVCVYRNGVRVCHRRAN-OH; disulfide 7-16; N-terminus assumed), the “mass ratio of peptide and DNA at which migration of E. tarda genome DNA is inhibited” value (E. tarda genomic DNA [1]) was “greater than 1”, the “competition with EB for binding to E. tarda genomic DNA (quenching of DNA-EB fluorescence)” value (E. tarda genomic DNA [2]) was “the binding affinity of N6 was stronger than that of N6NH2” and the “binding to LPS (displacement of BC probe)” value [3] was “potent LPS-binding affinity”. The MIC (Aeromonas veronii) was 2.58 µM, the MIC (Aeromonas veronii; [5]) was 6.4 µg/mL and the MIC (E. coli CVCC25922; CVCC25922) was 0.1 µM. The MIC (E. coli CVCC25922; [5]) was 0.25 µg/mL, the MIC (S. typhimurium ATCC14028; ATCC14028) was 0.8 µM and the MIC (S. typhimurium ATCC14028; [5]) was 2 µg/mL. It also gave an MIC ([4]; ATCC43300) of 6.46 µM and an MIC [4, 5] of 16 µg/mL.
